Measured values as given in US8143068B2, “Oxidation resistant indicator molecules” (Sensors for Medicine and Science, Inc., priority 2006, dated 2012).
Read-outs that look alike come from different tables or passages of the source.

Columns and labels:
[1] = Modulation of fluorescence by varying concentrations of glucose (Example 1, FIG. 1)
Experimental: The modulation of the fluorescence of various molecules (depicted in FIG. 5) by varying concentrations of glucose was determined. […] In a further experiment, the unsubstituted control and two compounds of the present invention (4-trifluoromethyl and 3,4-difluoro) were subjected to oxidation treatment with 1 mM hydrogen peroxide, and the loss of fluorescence intensity was measured.

[2] = Stability of indicator gels towards oxidant: 1 mM hydrogen peroxide in PBS at 37° C.; type: physicochemical; settings: indicator gel
Experimental: Several compounds of the present invention were each copolymerized with hydroxyethyl methacrylate (HEMA), acrylic acid and ethylene glycol dimethacrylate (EGDMA) to form water insoluble polymer gels, as in Example 3. Their stability towards oxidant was assessed by subjecting the gels to 1 mM hydrogen peroxide in PBS at 37° C. […] In a further experiment, the fluorescent change (% modulation) from 0 to 20 mM glucose of various indicator gels was measured and the results are shown in FIG. 8.

[3] = Fluorescence and glucose response of indicator gels (Table 1); type: binding; settings: indicator gel; for Kd: 37° C.
[4] = Long term exposure of indicator gels to 10 μM hydrogen peroxide and 4 mM glucose/PBS at 37° C., loss of fluorescence intensity; type: physicochemical; settings: indicator gel
Experimental: Several gels (produced as in Example 3) containing compounds of the present invention (4-trifluoromethyl, 3,4-difluoro and 4-fluoro) and a control (unsubstituted) were subjected to long term exposure to 10 μM hydrogen peroxide and 4 mM glucose/PBS at 37° C., and the loss of fluorescence intensity was measured.
Two compounds according to the present invention (4-trifluoromethyl and 3,4-difluoro) and the unsubstituted control were each copolymerized with hydroxyethyl methacrylate (HEMA) and acrylic acid, and crosslinked with ethylene glycol dimethacrylate (EGDMA) to form a water insoluble polymer graft, which was then implanted into a rat to be subjected to in vivo oxidation for 22 or 43 days.

[5] = Stability of indicator gels in 1 mM hydrogen peroxide in the presence of 4 mM glucose in PBS at 37° C.; type: physicochemical; settings: indicator gel
Experimental: Several compounds of the present invention were each copolymerized with hydroxyethyl methacrylate (HEMA), acrylic acid and ethylene glycol dimethacrylate (EGDMA) to form water insoluble polymer gels, as in Example 3. Their stability towards oxidant was assessed by subjecting the gels to 1 mM hydrogen peroxide in PBS at 37° C. In a further experiment, two of the indicator gels (the 4-trifluoromethyl and 4-trifluoromethylsulfone gels) were subjected to 1 mM hydrogen peroxide in the presence of 4 mM glucose in PBS at 37° C. In a further experiment, the fluorescent change (% modulation) from 0 to 20 mM glucose of various indicator gels was measured and the results are shown in FIG. 8.

[6] = aqueous association with glucose; cited from earlier work

Compound	t 1/2 [2] [min]	also measured
9-[N-[2-(4,4,5,5,-tetramethyl-1,3,2-dioxaborolano)-3-methylbenzyl]-N-[3-(methacrylamido)propylamino]methyl]-10-[N-[2-(4,4,5,5,-tetramethyl-1,3,2-dioxaborolano)-3-methylbenzyl]-N-[2-(carboxyethyl)amino]methyl]anthracene [Indicator 2-Methyl]	–	modulation of the fluorescence by glucose [1]: did not modulate well
9-[N-[2-(4,4,5,5,-tetramethyl-1,3,2-dioxaborolano)-4-(trifluoromethyl)benzyl]-N-[3-(methacrylamido)propylamino]methyl]-10-[N-[2-(4,4,5,5-tetra-methyl-1,3,2-dioxaborolano)-4-(trifluoromethyl)benzyl]-N-[2-(carboxyethyl)amino]methyl]-anthracene sodium salt [5-Trifluoromethyl]	24	–
9-[N-[6-(4,4,5,5,-tetramethyl-1,3,2-dioxaborolano)-2,3-dichlorobenzyl]-N-[3-(methacrylamido)propylamino]methyl]-10-[N-[6-(4,4,5,5,-tetramethyl-1,3,2-dioxaborolano)-2,3-dichlorobenzyl]-N-[2-(carboxyethyl)amino]methyl]anthracene sodium salt [3,4-Dichloro]	32	–
9-[N-[6-(4,4,5,5,-tetramethyl-1,3,2-dioxaborolano)-2,3-difluorobenzyl]-N-[3-(methacrylamido)propylamino]methyl]-10-[N-[6-(4,4,5,5,-tetramethyl-1,3,2-dioxaborolano)-2,3-difluorobenzyl]-N-[2-(carboxyethyl)amino]methyl]anthracene sodium salt [3,4-Difluoro]	13	AVERAGE % MODULATION (0 to 20 mM glucose) [3]: 137%; Kd [3]: 30.9 mM; HALF LIFE (days) at 37° C. in 4 mM glucose and 10 μM H2O2 [4]: 33 days
9-[N-[6-(4,4,5,5,-tetramethyl-1,3,2-dioxaborolano)-2,4-(dichloro)benzyl]-N-[3-(methacrylamido)propylamino]methyl]-10-[N-[6-(4,4,5,5,-tetramethyl-1,3,2-dioxaborolano)-2,4-(dichloro)benzyl]-N-[2-(carboxyethyl)amino]-methyl]anthracene sodium salt [3,5-Dichloro]	22	–
9-[N-[6-(4,4,5,5,-tetramethyl-1,3,2-dioxaborolano)-2,4-bis(trifluoromethyl)benzyl]-N-[3-(methacrylamido)propylamino]methyl]-10-[N-[6-(4,4,5,5,-tetramethyl-1,3,2-dioxaborolano)-2,4-bis(trifluoromethyl)benzyl]-N-[2-(carboxyethyl)amino]-methyl]anthracene sodium salt [3,5-Bis(trifluoromethyl)]	495	–
9-[N-[6-(4,4,5,5,-tetramethyl-1,3,2-dioxaborolano)-3-(trifluoromethyl)benzyl]-N-[3-(methacrylamido)propylamino]methyl]-10-[N-[6-(4,4,5,5,-tetramethyl-1,3,2-dioxaborolano)-3-(trifluoromethyl)benzyl]-N-[2-(carboxyethyl)amino]methyl]anthracene sodium salt [4-Trifluoromethyl]	17	AVERAGE % MODULATION (0 to 20 mM glucose) [3]: 191%; Kd [3]: 12.2 mM; HALF LIFE (days) at 37° C. in 4 mM glucose and 10 μM H2O2 [4]: 26 days; t 1/2 (minutes), in 4 mM Glucose Solution [5]: 30 min
9-[N-[6-(4,4,5,5,-tetramethyl-1,3,2-dioxaborolano)-3-cyanobenzyl]-N-[3-(methacrylamido)propylamino]methyl]-10-[N-[6-(4,4,5,5,-tetramethyl-1,3,2-dioxaborolano)-3-cyanobenzyl]-N-[2-(carboxyethyl)amino]methyl]anthracene sodium salt [Indicator 4-Cyano]	18	–
9-[N-[6-(4,4,5,5,-tetramethyl-1,3,2-dioxaborolano)-3-fluorobenzyl]-N-[3-(methacrylamido)propylamino]methyl]-10-[N-[6-(4,4,5,5,-tetramethyl-1,3,2-dioxaborolano)-3-fluorobenzyl]-N-[2-(carboxyethyl)amino]methyl]anthracene sodium salt [Indicator 4-Fluoro]	13	–
C=C(C)C(=O)NCCCN(Cc1cc(OC(F)(F)F)ccc1B1OC(C)(C)C(C)(C)O1)Cc1c2ccccc2c(CN(CCC(=O)[O-])Cc2cc(OC(F)(F)F)ccc2B2OC(C)(C)C(C)(C)O2)c2ccccc12.[Na+] [4-Trifluoromethoxy, 9-[N-[6-(4,4,5,5,-tetramethyl-1,3,2-dioxaborolano)-3-(trifluoromethoxy)benzyl]-N-[3-(methacrylamido)propylamino]methyl]-10-[N-[6-(4,4,5,5-tetra-methyl-1,3,2-dioxaborolano)-3-(trifluoromethoxy)benzyl]-N-[2-(carboxyethyl)amino]methyl]-anthracene sodium salt]	24	–
C=C(C)C(=O)NCCCN(Cc1cc([N+](=O)[O-])ccc1B1OC(C)(C)C(C)(C)O1)Cc1c2ccccc2c(CN(CCC(=O)[O-])Cc2cc([N+](=O)[O-])ccc2B2OC(C)(C)C(C)(C)O2)c2ccccc12.[Na+] [Indicator 4-Nitro, 9-[N-[6-(4,4,5,5,-tetramethyl-1,3,2-dioxaborolano)-3-nitrobenzyl]-N-[3-(methacrylamido)propylamino]methyl]-10-[N-[6-(4,4,5,5,-tetramethyl-1,3,2-dioxaborolano)-3-nitrobenzyl]-N-[2-(carboxyethyl)amino]methyl]anthracene sodium salt]	–	modulation of the fluorescence by glucose [1]: did not modulate well
C=C(C)C(=O)NCCCN(Cc1ccc(F)cc1B1OC(C)(C)C(C)(C)O1)Cc1c2ccccc2c(CN(CCC(=O)[O-])Cc2ccc(F)cc2B2OC(C)(C)C(C)(C)O2)c2ccccc12.[Na+] [Indicator 5-Fluoro, 9-[N-[2-(4,4,5,5,-tetramethyl-1,3,2-dioxaborolano)-4-fluorobenzyl]-N-[3-(methacrylamido)propylamino]methyl]-10-[N-[2-(4,4,5,5,-tetramethyl-1,3,2-dioxaborolano)-4-fluorobenzyl]-N-[2-(carboxyethyl)amino]methyl]anthracene sodium salt]	6	–
OB(O)c1ccccc1 [phenylboronic acid]	–	Kd [6]: 9.1 mM
